Measurements: publication PMC5291514, “Structure activity relationship and modeling studies of inhibitors of lysine specific demethylase 1” (PLoS ONE, 2017)

Assays:
recombinant human LSD1 = biological target: T1, recombinant human LSD1 (Homo sapiens, UniProt O60341); assay: LSD1 enzyme inhibition, HRP-coupled Amplex red assay; assay type: biochemical; details: for Selectivity index for LSD1: LSD1 versus MAO-A and -B; for fold less active against LSD1 than 10: comparator compound 10; for fold more active against LSD1 than compound 24: comparator compound 24; for selectivity for LSD1 inhibition: LSD1 over MAO-A/-B
T1 construct: Human LSD1 catalytic domain, consisting of residues 172–833; GST (N); made in house; host or cells: Escherichia coli BL21-CodonPlus
Method: Human LSD1 catalytic domain, consisting of residues 172–833, was expressed in Escherichia coli BL21-CodonPlus strain (Agilent) as a GST fusion protein, by using a pGEX-KG vector. Briefly, the cells were grown to late log phase at 37°C and then were induced overnight with 0.2 mM IPTG at 25°C. Cells were harvested and lysed by French Press in PBS buffer and the supernatant was subjected to an affinity column chromatography using the glutathione sepharose resin. The eluted LSD1 fractions were further purified with ~90% purity by gel filtration on a Superdex 200 column (GE healthcare).
Horseradish peroxidase (HRP)-coupled assay was used for the evaluation of the inhibitors, based on the reaction rate (i.e., amount of the product H2O2) being quantitatively determined by adding HRP and a HRP fluorescence substrate Amplex red.[20] 30 nM LSD1 was incubated with increasing concentrations of a compound in 50 mM phosphate buffer (pH = 7.0 containing 0.01% Brij-35) for 30 min at 25°C. […] The final volume of the reaction is 60 μL. Upon 20 min incubation, 60 μL solution containing HRP (0.01 unit) and Amplex red (80 μM) was added to quench the reaction. The fluorescence of each well was then determined using a Beckman DTX-880 microplate reader (excitation at 535; emission at 595 nm). Data were imported into Prism 5.0 (GraphPad) and the IC50 values were calculated by using the sigmoidal dose response curve fitting in the software. The reported IC50s were the mean values of at least three independent experiments.

human MAO-A = biological target: T2, human MAO-A (Homo sapiens, UniProt P21397); assay: Inhibition of MAO-A, MAO-Glo assay kit; assay type: biochemical; details: Table 2; 100 nM MAO-A, 60 min
T2 construct: purchased Sigma
T2 sequence (P21397 1-527): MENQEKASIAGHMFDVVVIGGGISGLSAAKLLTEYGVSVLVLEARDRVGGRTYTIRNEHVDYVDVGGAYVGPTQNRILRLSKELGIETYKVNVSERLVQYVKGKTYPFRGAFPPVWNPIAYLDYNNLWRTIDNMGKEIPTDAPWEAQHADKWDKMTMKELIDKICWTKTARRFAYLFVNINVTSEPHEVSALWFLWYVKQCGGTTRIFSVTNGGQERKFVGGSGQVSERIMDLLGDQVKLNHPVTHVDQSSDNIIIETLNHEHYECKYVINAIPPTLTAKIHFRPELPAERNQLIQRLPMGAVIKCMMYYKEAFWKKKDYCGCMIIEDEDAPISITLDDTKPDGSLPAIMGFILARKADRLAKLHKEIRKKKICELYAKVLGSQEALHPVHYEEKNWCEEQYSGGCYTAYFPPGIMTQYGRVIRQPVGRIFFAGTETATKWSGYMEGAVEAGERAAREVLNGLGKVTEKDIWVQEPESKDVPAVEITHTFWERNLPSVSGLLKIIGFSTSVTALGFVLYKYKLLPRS
Method: (§1) Inhibition of MAO-A and -B was determined using MAO-Glo assay kit (Promega). Following the manufacturer’s protocol, assays were performed in 384 well white plates (Corning) in the presence of 100 nM MAO-A/-B (Sigma) and MAO substrate. The final volume of each reaction mixture was 20 μL. Reactions were quenched after 60 min by adding reconstituted luciferin detection reagent (20 μL/well). 20 min after addition of detection reagent, the plate was measured in luminescence mode using Beckman DTX-880 microplate reader. IC50 calculation was done similarly.

human MAO-B = biological target: T3, human MAO-B (Homo sapiens, UniProt P27338); assay: Inhibition of MAO-B, MAO-Glo assay kit; assay type: biochemical; details: Table 2; 100 nM MAO-B, 60 min
T3 construct: purchased Sigma
T3 sequence (P27338 1-520): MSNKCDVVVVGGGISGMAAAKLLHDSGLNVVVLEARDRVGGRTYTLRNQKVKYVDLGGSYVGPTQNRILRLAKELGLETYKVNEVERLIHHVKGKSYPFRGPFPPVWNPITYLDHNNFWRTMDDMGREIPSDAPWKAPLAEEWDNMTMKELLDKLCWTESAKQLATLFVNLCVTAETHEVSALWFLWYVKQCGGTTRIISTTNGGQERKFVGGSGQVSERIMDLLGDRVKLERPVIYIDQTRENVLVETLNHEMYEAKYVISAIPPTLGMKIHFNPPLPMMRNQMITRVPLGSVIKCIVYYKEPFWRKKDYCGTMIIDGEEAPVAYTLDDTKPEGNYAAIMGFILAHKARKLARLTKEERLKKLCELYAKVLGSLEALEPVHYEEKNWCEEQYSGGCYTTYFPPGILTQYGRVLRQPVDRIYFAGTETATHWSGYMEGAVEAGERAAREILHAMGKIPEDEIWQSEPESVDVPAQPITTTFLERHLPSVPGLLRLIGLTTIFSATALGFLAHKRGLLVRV
Method: as §1

MAO-A and -B = assay: Inhibition of MAO-A/-B, MAO-Glo assay kit, one range given over both enzymes; assay type: biochemical, human; details: range over both enzymes and the named compounds; read-out: IC50 against MAO-A and -B
Method: as §1

[1] = Table 1, 30 nM LSD1, 30 min preincubation, 10 μM H3K4Me2 peptide

Nc1ccc(CNC2CC2c2ccc(Br)cc2)cc1 (racemic) [Compound 19]
IC50 (recombinant human LSD1; [1]): > 100000 nM

O=C(CNC1CC1c1ccc(Br)cc1)N1CCCCC1 (racemic) [Compound 11]
IC50 (recombinant human LSD1; [1]): 620 nM | IC50 (recombinant human LSD1; Table 2): 620 nM | Selectivity index for LSD1 (recombinant human LSD1; Table 2): <0.82 | fold less active against LSD1 than 10 (recombinant human LSD1): ~ 10 × | IC50 (human MAO-A): 260 nM | IC50 (human MAO-B): 510 nM

O=C(CNC1CC1c1ccc(Br)cc1)N1CCNCC1 (racemic) [Compound 10]
IC50 (recombinant human LSD1; [1]): 64 nM | IC50 (recombinant human LSD1; Table 2): 64 nM | Selectivity index for LSD1 (recombinant human LSD1; Table 2): >280 | IC50 (human MAO-A): 18100 nM | IC50 (human MAO-B): 23100 nM

CN1CCN(C(=O)CNC2CC2c2ccc(-c3ccc(Cl)nc3)cc2)CC1 (racemic) [Compound 4]
IC50 (recombinant human LSD1; [1]): 150 nM

Brc1ccc(C2CC2NCc2ccncc2)cc1 (racemic) [Compound 21]
IC50 (recombinant human LSD1; [1]): > 100000 nM

CN1CCN(C(=O)CNC2CC2c2ccc(Br)cc2)CC1 (racemic) [Compound 3, reference compound]
IC50 (recombinant human LSD1; [1]): 35 nM | IC50 (recombinant human LSD1; Table 2): 35 nM | Selectivity index for LSD1 (recombinant human LSD1; Table 2): >208 | IC50 (human MAO-A): 7300 nM | IC50 (human MAO-B): 16300 nM

Brc1ccc(C2CC2NCc2ccccc2)cc1 (stereo not shown) [Compound 17]
IC50 (recombinant human LSD1; [1]): 5000 nM

CN1CCN(C(=O)CNC2CC2c2cccc(Br)c2)CC1 (racemic) [Compound 6]
IC50 (recombinant human LSD1; [1]): > 100000 nM

CN1CCN(C(=O)CNC2CC2c2ccccc2Br)CC1 (racemic) [Compound 5]
IC50 (recombinant human LSD1; [1]): > 100000 nM

NNC1CC1c1ccccc1 (stereo not drawn) [Compound 31, Trans-phenyl cyclopropyl hydrazine]
IC50 (recombinant human LSD1; [1]): 5800 nM | Selectivity index for LSD1 (recombinant human LSD1; Table 2): >7 | IC50 (human MAO-A): 40700 nM | IC50 (human MAO-B): 87000 nM

O=C(Nc1ccccc1)NC1CC1c1ccc(Br)cc1 (racemic) [Compound 23]
IC50 (recombinant human LSD1; [1]): 7400 nM

Brc1ccc(C2CC2NNCC2CCNCC2)cc1 (racemic) [Compound 34]
IC50 (recombinant human LSD1; [1]): 1700 nM | fold less active against LSD1 than cyclopropylamine analog 15 (recombinant human LSD1; comparator compound 15): ~ 7 ×

COc1cccc(C=NC2CC2c2ccc(Br)cc2)c1 (racemic) [Compound 27]
IC50 (recombinant human LSD1; [1]): 900 nM | fold more active against LSD1 than compound 24 (recombinant human LSD1): > 10 ×

CN(C)c1ccc(C=NC2CC2c2ccc(Br)cc2)cc1 (racemic) [Compound 29]
LSD1 inhibitory activity in words (recombinant human LSD1): only modest activities | IC50 (recombinant human LSD1; [1]): 11000 nM

Brc1ccc(C2CC2N=Cc2ccccc2)cc1 (racemic) [Compound 24]
IC50 (recombinant human LSD1; [1]): 15600 nM

Oc1ccc(CNC2CC2c2ccc(Br)cc2)cc1 (racemic) [Compound 18]
IC50 (recombinant human LSD1; [1]): 94000 nM

O=C(CNC1CC1c1ccccc1)N1CCNCC1 (racemic) [Compound 13]
IC50 (recombinant human LSD1; [1]): 190 nM | fold more active against LSD1 than 14 (recombinant human LSD1; comparator compound 14): ~ 7 fold

Brc1ccc(C2CC2N=Cc2ccncc2)cc1 (racemic) [Compound 30]
LSD1 inhibitory activity in words (recombinant human LSD1): only modest activities | IC50 (recombinant human LSD1; [1]): 14000 nM

COc1ccccc1C=NC1CC1c1ccc(Br)cc1 (racemic) [Compound 26]
selectivity for LSD1 inhibition (recombinant human LSD1): no LSD1 selectivity was observed | IC50 (recombinant human LSD1; [1]): 740 nM | IC50 (recombinant human LSD1; Table 2): 740 nM | Selectivity index for LSD1 (recombinant human LSD1; Table 2): <0.54 | fold more active against LSD1 than compound 24 (recombinant human LSD1): > 10 × | IC50 (human MAO-A): 300 nM | IC50 (human MAO-B): 400 nM

NC1CC1c1ccc(OCc2ccccc2)cc1 (racemic) [Compound 7]
IC50 (MAO-A and -B): 170 to 3100 nM | fold less active against LSD1 than the corresponding compounds 1–3 (recombinant human LSD1; 7 vs 1, 8 vs 2, 9 vs 3): 92 fold | IC50 (recombinant human LSD1; [1]): 910 nM | IC50 (recombinant human LSD1; Table 2): 910 nM | Selectivity index for LSD1 (recombinant human LSD1; Table 2): <0.38 | IC50 (human MAO-A): 170 nM | IC50 (human MAO-B): 350 nM

Brc1ccc(C2CC2NCC2CCNCC2)cc1 (racemic) [Compound 15]
IC50 (recombinant human LSD1; [1]): 260 nM

CN1CCN(C(=O)CNCC#Cc2ccccc2)CC1 [Compound 35, 1-(4-methylpiperazin-1-yl)-2-((3-phenylprop-2-yn-1-yl)amino)ethan-1-one]
IC50 (recombinant human LSD1; [1]): 36400 nM

CN1CCN(C(=O)CNC2CC2c2ccc(-c3ccc(F)nc3)cc2)CC1 (racemic) [Compound 2, reference compound]
IC50 (recombinant human LSD1; [1]): 77 nM | IC50 (recombinant human LSD1; Table 2): 77 nM | Selectivity index for LSD1 (recombinant human LSD1; Table 2): >1,500 | IC50 (human MAO-A): 120000 nM | IC50 (human MAO-B): 480000 nM

O=C(CNNC1CC1c1ccccc1)N1CCNCC1 (racemic) [Compound 32]
selectivity for LSD1 inhibition (recombinant human LSD1): > 150 fold | IC50 (recombinant human LSD1; [1]): 670 nM | IC50 (recombinant human LSD1; Table 2): 670 nM | Selectivity index for LSD1 (recombinant human LSD1; Table 2): >145 | fold less active against LSD1 than cyclopropylamine analog 13 (recombinant human LSD1; comparator compound 13): ~ 3 × | fold enhanced LSD1 activity over 31 (recombinant human LSD1; comparator compound 31): ~ 9 fold | IC50 (human MAO-A): 97500 nM | IC50 (human MAO-B): 370000 nM

O=C(CNC1CC1c1ccc(Br)cc1)N1CCCC1 (racemic) [Compound 12]
IC50 (recombinant human LSD1; [1]): 3600 nM | fold less active against LSD1 than 10 (recombinant human LSD1): ~56 ×

CC(=O)NC1CC1c1ccc(Br)cc1 (racemic) [Compound 22]
IC50 (recombinant human LSD1; [1]): 15400 nM

Brc1ccc(C=NC2CC2c2ccc(Br)cc2)cc1 (racemic) [Compound 25]
IC50 (recombinant human LSD1; [1]): 1200 nM | fold more active against LSD1 than compound 24 (recombinant human LSD1): > 10 ×

CN(C)c1ccc(CNC2CC2c2ccc(Br)cc2)cc1 (racemic) [Compound 20]
IC50 (recombinant human LSD1; [1]): 71000 nM

O=C(NNC1CC1c1ccccc1)N1CCNCC1 (racemic) [Compound 33]
IC50 (recombinant human LSD1; [1]): 84000 nM

O=C(CNC1CC1c1ccccc1)N1CCCCC1 (racemic) [Compound 14]
IC50 (recombinant human LSD1; [1]): 1300 nM
